The target in test [1] is T1, human SPPL2a (Homo sapiens, UniProt Q8TCT8).
T1 sequence (Q8TCT8 26-520): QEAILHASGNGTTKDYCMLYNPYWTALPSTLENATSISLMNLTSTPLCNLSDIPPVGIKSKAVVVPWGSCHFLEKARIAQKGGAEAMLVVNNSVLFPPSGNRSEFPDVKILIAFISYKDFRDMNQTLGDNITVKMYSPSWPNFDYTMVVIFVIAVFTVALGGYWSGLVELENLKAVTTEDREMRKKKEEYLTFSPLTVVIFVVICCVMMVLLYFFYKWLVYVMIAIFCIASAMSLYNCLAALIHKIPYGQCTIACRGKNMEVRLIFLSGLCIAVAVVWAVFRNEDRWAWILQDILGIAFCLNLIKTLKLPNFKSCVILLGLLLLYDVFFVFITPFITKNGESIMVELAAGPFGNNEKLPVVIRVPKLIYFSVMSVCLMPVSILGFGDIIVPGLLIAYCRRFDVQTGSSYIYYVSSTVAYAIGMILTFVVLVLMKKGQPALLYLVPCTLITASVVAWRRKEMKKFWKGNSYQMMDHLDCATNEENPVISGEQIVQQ
In words: Sppl2a RGA (reporter gene assay) in HEK293 cells. Conditions: NT-TNF-VP16-Gal4 substrate, Gal4-luciferase reporter, 24 h. More on the design: expressed in transfected cells; host or cells: HEK293 (transient). The format is cell-based. An excerpt: Sppl2a RGA (Reporter Gene Assay):
Sppl2a is an intramembrane aspartyl protease with similarities to presenilin, the active subunit of the γ-secretase complex. The assay is based on the coupling of the proteolytic degradation of a membrane bound synthetic substrate (VP16-Gal4 fusion protein with the N-terminal domain of TNF alpha), which migrates to the nucleus upon cleavage, with the Gal4 driven expression of luciferase. Inhibition of Sppl2a results in a reduction of nuclear VP16-Gal4 activator and therefore in a reduction of the production of luciferase. The luciferase dependent-luminescence is plotted against the concentrations of compound to generate a dose response curve, which allows the calculation of the IC50 value.
DNA vectors encoding human Sppl2a, NT-TNF-VP16-Gal4 and a Gal4-luciferase reporter were transiently transfected in HEK293 cells. In a typical experiment 5 μg plasmid for SPPL2a, 10 μg plasmid encoding the reporter Gal4-luciferase and 20 μg plasmid encoding the substrate NT-TF-VP16-Gal4 were mixed together. The DNA mixture was combined with 107 μl FuGENE® (Promega), 735 μl Opti-MEM® (Life Technologies) and incubated for 5 minutes at RT. To this mixture 20 mL of concentrated HEK293 cells were added and thoroughly mixed. The cell suspension was distributed to a white solid 384 well plate. Within 5 hours, 50 nl of compound in DMSO was stamped into the wells via pintool. The plate was incubated for 24 h at 37° C., 5% CO2 in a humidified incubator, before the addition of 25 μl Bright Glo. After incubation at RT for 5 min, the plate was transferred to a luminometer and the luminescence was measured. The IC50 was determined by plotting compound concentration vs. normalized luminescence values.
(Reporter assays use an easily measured gene product as a stand-in for the process of interest.)

The target in test [2] is T1, human SPPL2a. As to the kind of experiment: Sppl2a TL (translocation) imaging assay in U-2 OS cells. The format is cell-based. More on the design: expressed in transfected cells. As to conditions: U-2 OS cells expressing human SPPL2a and EGFP-TNFα(aa1-76) NTF substrate; 24 h. The protocol: SPPL2a, TL in U-2 OS Cells. Stable U-2 OS cell lines expressing human SPPL2a constitutively and a EGFP-labeled TNFα(aa1-76) NTF substrate under a doxycycline-regulated promoter were used for the imaging assays. Cells were seeded at 3000 cells/30 μL/384-well in DMEM/GlutaMax™-I (Invitrogen) supplemented with tetracycline-free 10% FBS (Amimed) and incubated at 37° C., 5% CO2 for 3-4 h. Subsequently, 3.3 μL of inhibitors, prediluted in doxycycline-containing medium for 11-point concentration-response curves, were added to each well using a CyBi well liquid handling device (Cybio AG, Jena, Germany) to result in final inhibitor concentrations ranging from 100 μM to 1 nM (final DMSO concentration 0.9% (v/v)) and 5 μg/mL doxycycline). The cells were incubated with inhibitor at 37° C., 5% CO2 for 24 h. Thereafter cell were fixed in 4% PFA/PBS and in parallel, nuclei were stained with Hoechst (Invitrogen) 1:5000 in PBS for 30 min. The plates were imaged using a Cellomics ArrayScan VTI HCS reader with 10×/0.3NA objective (Thermo Fisher Scientific, USA). Six images per well were acquired. Images for the EGFP signal (Ex395, Em509) and the Hoechst nuclear dye (Ex350, Em425) were acquired simultaneously with image analysis using the “Nuclear Translocation” assay algorithm of the Cellomics ArrayScan software. Nuclei were detected based on the Hoechst staining, the nuclear mask was transferred to the EGFP channel, and a 4 pixel wide cytoplasm ring region was defined around the nucleus. The intensity of the EGFP signal was measured both in the nuclear and in the cytoplasm ring region of each individual cell (in general 800-1000 individual cells were analyzed per well), and the difference of the average nuclear versus average cytoplasmic intensity of the EGFP signal was calculated (“CircRingAvgIntenDiffCh2”=“CircAvgIntenCh2”−“RingAvgIntenCh2”). Additionally the number of cells were acquired (feature termed “ValidCellCount”) and used to calculate cell toxicity (CC50). Percent inhibition was calculated relative to the positive (0.5 μM LY-411,575=100% inhibition) and negative (DMSO=0% inhibition) controls. The IC50 value was calculated from the plot of percentage of inhibition vs inhibitor concentration using nonlinear regression analysis software, e.g., Origin (OriginLab Corp.).

pIC50: −log10 of the molar value.

For orientation: pIC50 means the IC50 on a negative log10 scale, so that one unit is a factor of ten. High values mean a small IC50, low ones a large IC50. On to `CC[C@H](CNC(=O)c1sncc1C)C(=O)N[C@@H]1C(=O)N2CCCN2C(=O)c2ccccc21` [Example 35, N-((R)-2-(((S)-5,11-Dioxo-2,3,10,11-tetrahydro-1H,5H-benzo[d]pyrazolo [1,2-a][1,2]diazepin-10-yl)carbamoyl)butyl)-4-methylisothiazole-5-carboxamide], for which the pIC50 at human SPPL2a [1] is 7.47; against human SPPL2a [2], 7.35.
As to `CC[C@H](CNC(=O)c1scnc1C)C(=O)N[C@@H]1C(=O)N2CCCN2Cc2ccccc21` [Example 29, 4-Methyl-N-((R)-2-(((S)-11-oxo-2,3,10,11-tetrahydro-1H,5H-benzo[d]pyrazolo [1,2-a][1,2]diazepin-10-yl)carbamoyl)butyl) thiazole-5-carboxamide], the pIC50 on human SPPL2a [1] is 7.08; against human SPPL2a [2], 7.54.
In the case of `CCc1nnsc1C(=O)NC[C@@H](CC)C(=O)N[C@@H]1C(=O)N2CC3(CC3)CN2C(=O)c2ccccc21` [Example 36, N-((R)-2-(((S)-5,11-Dioxo-10,11-dihydro-1H,3H,5H-spiro[benzo[d]pyr-azolo[1,2-a][1,2]diazepine-2,1′-cyclopropan]-10-yl)carbamoyl)butyl)-4-ethyl-1,2,3-thiadiazole-5-carboxamide], the pIC50 against human SPPL2a [1] was 7.47; against human SPPL2a [2], 7.35.
On the same counts, the results for `C[C@H](CC(=O)Nc1cc(-c2cc(C3CC3)no2)nn1C)C(=O)N[C@@H]1C(=O)N2CCCN2Cc2ccccc21` [Example 71, (R)-N^4-(3-(3-Cyclopropylisoxa-zol-5-yl)-1-methyl-1H-pyrazol-5-yl)-2-methyl-N^1-((S)-11-oxo-2,3,10,11-tetrahydro-1H,5H-benzo[d]pyrazolo [1,2-a][1,2]diazepin-10-yl)succinamide] are 8.40 and 8.40.
As for `Cc1nc(-c2cncc(F)c2)sc1NC(=O)C[C@@H](C)C(=O)N[C@@H]1C(=O)N2CCCN2Cc2ccccc21` [Example 79, (R)-N^4-(2-(5-fluoropyridin-3-yl)-4-methylthiazol-5-yl)-2-methyl-N^1-((S)-11-oxo-2,3,10,11-tetrahydro-1H,5H-benzo[d]pyrazolo [1,2-a][1,2]diazepin-10-yl)succinamide], the pIC50 on human SPPL2a [1] is 8.00; against human SPPL2a [2], 8.15.
On the same counts, the results for `Cc1ccc(-c2cc(NC(=O)C[C@@H](C)C(=O)N[C@@H]3C(=O)N4CCCN4Cc4ccccc43)n(C)n2)cn1` [Example 105, (R)-2-Methyl-N^4-(1-methyl-3-(6-methylpyridin-3-yl)-1H-pyrazol-5-yl)-N^1-((S)-11-oxo-2,3,10,11-tetrahydro-1H,5H-benzo[d]pyrazolo [1,2-a][1,2]diazepin-10-yl)succinamide] are 7.64 and 7.74.
As to `O=C(C[C@H](C(=O)N[C@@H]1C(=O)N2CCCN2C(=O)c2ccccc21)C1CC1)Nc1sc(-c2ccc(C(F)(F)F)nc2)nc1Cl` [Example 107, (S)-N^4-(4-Chloro-2-(6-(trifluoromethyl)pyridin-3-yl)thiazol-5-yl)-2-cyclopropyl-N^1-((S)-5,11-dioxo-2,3,10,11-tetrahydro-1H,5H-benzo[d]pyrazolo [1,2-a][1,2]diazepin-10-yl)succinamide], the pIC50 against human SPPL2a [1] was 7.96; at human SPPL2a [2], 7.82.
For the compound `CC[C@H](CNC(=O)c1sc(-c2ccc(C(F)(F)F)nc2)nc1Cl)C(=O)N[C@@H]1C(=O)N2CCCN2Cc2ccccc21` [Example 15, 4-Chloro-N-((R)-2-(((S)-11-oxo-2,3,10,11-tetrahydro-1H,5H-benzo[d]pyrazolo [1,2-a][1,2]diazepin-10-yl)carbamoyl)butyl)-2-(6-(trifluoromethyl)pyridin-3-yl)thiazole-5-carboxamide], the pIC50 was 8.10 against human SPPL2a [1] and 7.96 against human SPPL2a [2].
As to `CC[C@H](CNC(=O)c1scnc1Cl)C(=O)N[C@@H]1C(=O)N2CC3(CC3)CN2C(=O)c2ccccc21` [Example 49, 4-Chloro-N-((R)-2-(((S)-5,11-dioxo-10,11-dihydro-1H,3H,5H-spiro [benzo[d]pyr-azolo[1,2-a][1,2]diazepine-2,1″-cyclopropan]-10-yl)carbamoyl)butyl) thiazole-5-carboxamide], the results for the pIC50 against human SPPL2a [1] and against human SPPL2a [2] were 7.05 and 7.04, respectively.
On to `CC[C@H](CNC(=O)c1sc(-c2ccc(C(F)(F)F)nc2)nc1C)C(=O)N[C@@H]1C(=O)N2CCCN2Cc2ccccc21` [Example 18, 4-Methyl-N-((R)-2-(((S)-11-oxo-2,3,10,11-tetrahydro-1H,5H-benzo[d]pyrazolo [1,2-a][1,2]diazepin-10-yl)carbamoyl)butyl)-2-(6-(trifluoromethyl)pyridin-3-yl)thiazole-5-carboxamide], for which the negative-log IC50 (pIC50) at human SPPL2a [1] was 8.52; against human SPPL2a [2], 7.92.
On the same counts, the results for `Cc1cncc(-c2cc(NC(=O)C[C@@H](C)C(=O)N[C@@H]3C(=O)N4CCCN4Cc4ccccc43)n(C)n2)c1` [Example 74, (R)-2-Methyl-N^4-(1-methyl-3-(5-methylpyridin-3-yl)-1H-pyrazol-5-yl)-N^1-((S)-11-oxo-2,3,10,11-tetrahydro-1H,5H-benzo[d]pyrazolo [1,2-a][1,2]diazepin-10-yl)succinamide] are 7.89 and 8.40.
Consider `CCC[C@H](Cc1nc2cc(F)cc(C)c2[nH]1)C(=O)N[C@@H]1C(=O)N2CCCN2Cc2ccccc21` [Example 119, (R)-2-((5-fluoro-7-methyl-1H-benzo[d]imidazol-2-yl)methyl)-N-((S)-11-oxo-2,3,10,11-tetrahydro-1H,5H-benzo[d]pyrazolo[1,2-a][1,2]diazepin-10-yl)pentanamide], for which the pIC50 against human SPPL2a [1] is 7.72; against human SPPL2a [2] it was 6.73.
For the compound `Cc1cc(F)cc2nc(C[C@@H](C)C(=O)N[C@@H]3C(=O)N4CCCN4Cc4ccccc43)[nH]c12` [Example 117, (R)-3-(5-fluoro-7-methyl-1H-benzo[d]imidazol-2-yl)-2-methyl-N-((S)-11-oxo-2,3,10,11-tetrahydro-1H,5H-benzo[d]pyrazolo[1,2-a][1,2]diazepin-10-yl)propanamide], the pIC50 against human SPPL2a [1] was 7.68; against human SPPL2a [2], 6.85.
For the compound `CCc1cc(-c2cc(NC(=O)C[C@@H](C)C(=O)N[C@@H]3C(=O)N4CCCN4Cc4ccccc43)n(C)n2)no1` [Example 81, (R)-N^4-(3-(5-Ethylisoxazol-3-yl)-1-methyl-1H-pyrazol-5-yl)-2-methyl-N^1-((S)-11-oxo-2,3,10,11-tetrahydro-1H,5H-benzo[d]pyrazolo [1,2-a][1,2]diazepin-10-yl)succinamide], the pIC50 was 8.30 against human SPPL2a [1] and 8.10 against human SPPL2a [2].

(Values after US20230365571A1, “COMPOUNDS AND COMPOSITIONS AS Sppl2a INHIBITORS” (Novartis AG, priority 2020, published 2023).)
